Measured values: ChEMBL document CHEMBL1137642, “Growth and drug resistance phenotypes resulting from cytomegalovirus DNA polymerase region III mutations observed in clinical specimens” (Antimicrob Agents Chemother, 2007)

What was measured:
Human betaherpesvirus 5 [1] = assay: Antiviral activity against Cytomegalovirus CMV T2211 infected in HFF cells by SEAP reporter gene assay; assay type: functional, organism-based; conditions: Human betaherpesvirus 5, T2211, HFF
Human betaherpesvirus 5 [2] = assay: Antiviral activity against Cytomegalovirus CMV T2258 with UL97 C592G mutant infected in HFF cells by SEAP reporter gene assay; assay type: functional, organism-based; conditions: Human betaherpesvirus 5, T2258, HFF
Human betaherpesvirus 5 [3] = assay: Antiviral activity against Cytomegalovirus CMV T2417 with pol A809V mutant infected in HFF cells by SEAP reporter gene assay; assay type: functional, organism-based; conditions: Human betaherpesvirus 5, T2417, HFF
Human betaherpesvirus 5 [4] = assay: Antiviral activity against Cytomegalovirus CMV T2784 with pol A809V UL97 C592G double mutant infected in HFF cells by SEAP reporter gene assay; assay type: functional, organism-based; conditions: Human betaherpesvirus 5, T2784, HFF
Human betaherpesvirus 5 [5] = assay: Antiviral activity against Cytomegalovirus CMV T2542 with pol T813S mutant infected in HFF cells by SEAP reporter gene assay; assay type: functional, organism-based; conditions: Human betaherpesvirus 5, T2542, HFF
Human betaherpesvirus 5 [6] = assay: Antiviral activity against Cytomegalovirus CMV T2798 with pol T813S UL97 C592G double mutant infected in HFF cells by SEAP reporter gene assay; assay type: functional, organism-based; conditions: Human betaherpesvirus 5, T2798, HFF
Human betaherpesvirus 5 [7] = assay: Antiviral activity against Cytomegalovirus CMV T2420 with pol G841A mutant infected in HFF cells by SEAP reporter gene assay; assay type: functional, organism-based; conditions: Human betaherpesvirus 5, T2420, HFF
Human betaherpesvirus 5 [8] = assay: Antiviral activity against Cytomegalovirus CMV 2817 with pol G841A UL97 C592G double mutant infected in HFF cells by SEAP reporter gene assay; assay type: functional, organism-based; conditions: Human betaherpesvirus 5, T2817, HFF
Human betaherpesvirus 5 [9] = assay: Drug resistance, ratio of EC50 for Cytomegalovirus CMV T2417 pol A809V mutant to EC50 for Cytomegalovirus CMV T2211 by plaque reduction assay; assay type: functional
Human betaherpesvirus 5 [10] = assay: Drug resistance, ratio of EC50 for Cytomegalovirus CMV T2420 pol G841A mutant to EC50 for Cytomegalovirus CMV T2211 by SEAP reporter gene assay; assay type: functional
Human betaherpesvirus 5 [11] = assay: Drug resistance, ratio of EC50 for Cytomegalovirus CMV […] pol T813S mutant to EC50 for Cytomegalovirus CMV T2211 by SEAP reporter gene assay; assay type: functional
Human betaherpesvirus 5 [12] = assay: Drug resistance, ratio of EC50 for Cytomegalovirus CMV T2417 pol A809V mutant to EC50 for Cytomegalovirus CMV T2211 by SEAP reporter gene assay; assay type: functional
Human betaherpesvirus 5 [13] = assay: Drug resistance, ratio of EC50 for Cytomegalovirus CMV pol A384P mutant to EC50 for Cytomegalovirus CMV T2211 by SEAP reporter gene assay; assay type: functional
Human betaherpesvirus 5 [14] = assay: Drug resistance, ratio of EC50 for Cytomegalovirus CMV T2784 with pol A809V UL97 C592G double mutant to EC50 for Cytomegalovirus CMV T2211 by SEAP reporter gene assay; assay type: functional
Human betaherpesvirus 5 [15] = assay: Drug resistance, ratio of EC50 for Cytomegalovirus CMV T2798 with pol T813S UL97 C592G double mutant to EC50 for Cytomegalovirus CMV T2211 by SEAP reporter gene assay; assay type: functional
Human betaherpesvirus 5 [16] = assay: Drug resistance, ratio of EC50 for Cytomegalovirus CMV T2817 with pol G841A UL97 C592G double mutant to EC50 for Cytomegalovirus CMV T2211 by SEAP reporter gene assay; assay type: functional
Human betaherpesvirus 5 [17] = assay: Drug resistance, ratio of EC50 for Cytomegalovirus CMV pol T821I mutant to EC50 for Cytomegalovirus CMV T2211 by SEAP reporter gene assay; assay type: functional

Row | Compound | EC50 (Human betaherpesvirus 5 [1]) [µM] | EC50 (Human betaherpesvirus 5 [2]) [µM] | EC50 (Human betaherpesvirus 5 [3]) [µM] | EC50 (Human betaherpesvirus 5 [4]) [µM] | EC50 (Human betaherpesvirus 5 [5]) [µM] | EC50 (Human betaherpesvirus 5 [6]) [µM] | EC50 (Human betaherpesvirus 5 [7]) [µM] | EC50 (Human betaherpesvirus 5 [8]) [µM] | fold change (FC) (Human betaherpesvirus 5 [9]) | fold change (FC) (Human betaherpesvirus 5 [10]) | fold change (FC) (Human betaherpesvirus 5 [11]) | fold change (FC) (Human betaherpesvirus 5 [12]) | fold change (FC) (Human betaherpesvirus 5 [13]) | fold change (FC) (Human betaherpesvirus 5 [14]) | fold change (FC) (Human betaherpesvirus 5 [15]) | fold change (FC) (Human betaherpesvirus 5 [16]) | fold change (FC) (Human betaherpesvirus 5 [17])
1 | O=C(O)P(=O)(O)O [FOSCARNET] | 41 | 44 | 137 | 137 | 199 | 204 | 176 | 213 | 6.3 | 3 | 3 | 3 | – | – | – | – | –
2 | Nc1ccn(C[C@@H](CO)OCP(=O)(O)O)c(=O)n1.O.O [CIDOFOVIR] | 0.22 | 0.27 | 0.42 | 0.45 | 0.6 | 0.37 | 0.58 | 0.67 | 1.6 | – | – | – | – | – | – | – | –
3 | Nc1nc2c(ncn2COC(CO)CO)c(=O)[nH]1 [GANCICLOVIR] | 1.1 | 3.9 | 2.6 | 6.1 | 2.7 | 6.6 | 3.5 | 8.4 | 2.6 | – | – | – | 5 | 2 | 2 | 2 | 5
